According to patent publication US6905680B2, “Methods of treating HIV infected subjects” (Genetics Institute, Inc., priority 1994, dated 2005):

Key:
[1] = tested on: CD28^+ T cells; assay: Lymphokine production by CD28+ T cells, ELISA 24 h (Table 3); type: cell-based, human; settings: no CHO cells
Description: All values were assessed by using dilutions of culture supernatant that yielded read-outs within the linear portion of the standard curve. The cytokine production data is summarized below in Table 3.

[2] = tested on: CD4^+ T cells; assay: Lymphokine production by CD4+ T cells (Table 4); type: cell-based, human
Excerpt: (§1) To assess whether distinct T cell subsets might differentially respond to B7-1 or B7-2, CD28^+ T cells were divided into CD28^+CD4^+ and CD28^+CD8^+cells and into CD4^+CD45RO^+ and CD4^+CD45RA+subsets. To obtain CD28^+CD4^+ or CD28^+CD8^+ T cells, the CD28^+ T cells were subjected to a second round of negative selection using magnetic beads (Dynal) coated with CD8 or CD4 mAb as described in June et al. (1989) J. Immunol. 143:153. CD4^+CD45RO^+ and CD4^+CD45RA^+ subpopulations were isolated by subjecting CD28^+ T cells to negative selection using magnetic beads and anti-CD45RO monoclonal antibody UCHL1 or anti-CD45RA monoclonal antibody ALB11 (Immuntech). […]

[3] = tested on: CD8^+ T cells; assay: Lymphokine production by CD8+ T cells (Table 4); type: cell-based, human
Excerpt: as §1

[4] = tested on: CD4^+ T cells; assay: Long term growth of CD4+ T cells with coated beads (Example 19); type: cell-based, human; settings: CD4 and CD8^+ T cells
Description: CD28^+ T cells were divided into the CD4 and CD8^+ T cell subsets as described in Example 13. […] No cytokine or feeder cells were added to these cultures, and the cultures were maintained as described in Example 1.

[5] = tested on: CD28-induced IL-2 production; settings: cited from earlier work
[6] = target: T1, human CD28 (human, UniProt P10747 19-220); assay: immunofluorescence on Jurkat cells (CD28+ CTLA4-)
T1 construct: whole, on cells; also called CD28 on CHO-hh (CHO-HH) cells; CD28 on Jurkat #7 cells

With “αCD3 only: plastic immobilized anti-CD3 mAb (OKT3) alone” the GM-CSF [1] was 280 pg/mL, the IFN-γ [1] was 280 pg/mL and the IL-2 [1] was <60 pg/mL. For the same molecule, the IL-4 [1] was <20 pg/mL, the TNFα [1] was 380 pg/mL and the GM-CSF [2] was 9770 pg/mL. The IFN-γ [2] was 1270 pg/mL, the IL-2 [2] was 93 pg/mL and the GM-CSF [3] was 8900 pg/mL. It also gave an IFN-γ [3] of 1620 pg/mL and an IL-2 [3] of 133 pg/mL.

For OKT3 only: beads coated with OKT3 alone, the “time to death of the cells” value [4] was ≤ 1 week.

In the case of `CO[C@H]1[C@@H](OC)C[C@H](C)[C@@H](OC)C2=CC(=O)C=C(NC(=O)/C(C)=C/C=C\[C@H](OC)[C@@H](OC(N)=O)/C(C)=C/[C@@H]1C)C2=O` [herbimycin A], the “effect on CD28-induced IL-2 production” value [5] is listed as “can inhibit”.

B1: human B7-2Ig fusion protein (Fc fusion)
chain: APLKIQAYFNETADLPCQFANSQNQSLSELVVFWQDQENLVLNEVYLGKEKFDSVHSKYMGRTSFDSDSWTLRLHNLQIKDKGLYQCIIHHKKPTGMIRIHQMNSELSVLANFSQPEIVPISNITENVYINLTCSSIHGYPEPKKMSVLLRTKNSTIEYDGIMQKSQDNVTELYDVSISLSVSFPDVTSNMTIFCILETDKTRLLSSPFSIELEDPQPPPDH
notes: not shown: Fc portion of human IgG1
B1: binds [6].
